# Reference: publication PMC524486, “Branched-chain amino acid aminotransferase and methionine formation in Mycobacterium tuberculosis” (BMC Microbiology, 2004)
# Where two headings read alike, the source gives them in different places.
# What was measured:
# [1] = test system: M. tuberculosis branched-chain aminotransferase; format: biochemical, Mycobacterium tuberculosis H37Rv; conditions: for amino donor activity for Met formation from KMTB: 2 mM individual amino acid, 1 mM KMTB, 30 min at 37°C (Figure 5); for Km: read-out: Apparent Km
# [2] = target: M. tuberculosis BCAT (Mycobacterium tuberculosis, UniProt P9WQ75); test: Inhibition of BCAT-catalysed Met formation by aminooxy compounds; format: biochemical, Mycobacterium tuberculosis H37Rv; conditions: for inhibition of Met formation, ranking at 0.1 mM / inhibition of Met formation: 2.0 mM leucine; for inhibition of Met formation, ranking at 0.1 mM: 0.1 mM inhibitor (Figure 6); for type of inhibition: fit to competitive, uncompetitive and mixed inhibition equations; for inhibition of Met formation: 0.1 or 1.0 mM inhibitor (Figure 6)
# Protocol: Aminotransferase activities were assayed by an HPLC method. 5 or 10 μl of recombinant enzyme was added to 100 μl of substrate mix (100 mM PO4 (pH 7.4)/50 μM PLP/various concentrations of amino acid/various concentrations of keto acid) and incubated for 30 min at 37°C. The samples were then stored at -20°C until analysis by HPLC. All samples were analysed by pre-column derivatisation and reverse-phase HPLC. 10 μl of sample was mixed with 50 μl of 400 mM borate pH 10.5 and then with 10 μl of 10 mg/ml o-phthalaldehyde/12 μl/ml mercaptopropionate/400 mM borate pH 10.5 prior to the injection of 7.0 μl onto a 2.1 × 200 mm ODS-AA column (Agilent; Mississauga, ON, Canada). The column was eluted using 2.72 mg/ml sodium acetate pH 7.2/0.018% v/v triethylamine/0.3% v/v tetrahydrofuran as Buffer A and 2.72 mg/ml sodium acetate pH 7.2/40% v/v methanol/40% v/v acetonitrile as Buffer B with a linear gradient of 0 – 17% B over 16 min followed by a linear gradient of 17–100% B over 1 min and 6.0 min at 100% B. The flow rate was 0.45 ml/min from 0 – 16 min and 0.80 ml/min from 17–30 min. The elution of derivatised amino acids was monitored at 338 nm and fluorometrically with an excitation of 338 nm and an emission of 450 nm. All separations were performed on an Agilent 1100 HPLC equipped with an autosampler, variable wavelength ultraviolet/visible spectrophotometric detector, fluorescence detector, and Chemstation operating system.
# Initial inhibition studies screened 13 aminooxy compounds against M. tuberculosis BCAT using 2.0 mM Leu/1.0 mM KMTB/0.1 or 1.0 mM inhibitor in the enzyme incubation. […] These reactions involved 0.5, 1.0, 2.0, or 3.0 mM Leu and 1.0 mM KMTB in the reaction mixture together with 0, 25, 50, 75, 100, 150, 200 μM of inhibitor. The Ki values were determined by non-linear curve fitting with the Scientist software programmed with competitive, uncompetitive, and mixed inhibition equations [25].
# [3] = test system: M. tuberculosis; test: In vitro growth inhibition, microtitre doubling dilution, A650 nm; format: cell-based, M. tuberculosis H37Rv
# [4] = test system: M. marinum; test: as above; format: cell-based, M. marinum Aronson (ATCC927)
# [5] = test system: M. tuberculosis; conditions: older study, other medium, cited from earlier work
# [6] = varying substrate, 10 mM cosubstrate KMTB, Met formation
# [7] = varying substrate, 10 mM cosubstrate KG, Glu formation
# [8] = varying keto acid substrate, 10 mM cosubstrate Leu
# [9] = 0.5-3.0 mM Leu, 1.0 mM KMTB, 0-200 μM inhibitor
# [10] = read-out: Kic (competitive component of mixed-type inhibition), 0.5-3.0 mM Leu, 1.0 mM KMTB, 0-200 μM inhibitor
# [11] = M. tuberculosis, n = 6, 14 days at 37°C, Middlebrook 7H9
# [12] = M. tuberculosis, n = 6, 14 days at 37°C, Middlebrook 7H9, read-out: IC50
# [13] = M. marinum, n = 8, 8 days at 30°C, Middlebrook 7H9
# [14] = M. marinum, n = 8, 8 days at 30°C, Middlebrook 7H9, read-out: IC50
# [15] = Mycobacterium tuberculosis, 336 h
# Sequence of M. tuberculosis BCAT (P9WQ75 whole entry, looked up): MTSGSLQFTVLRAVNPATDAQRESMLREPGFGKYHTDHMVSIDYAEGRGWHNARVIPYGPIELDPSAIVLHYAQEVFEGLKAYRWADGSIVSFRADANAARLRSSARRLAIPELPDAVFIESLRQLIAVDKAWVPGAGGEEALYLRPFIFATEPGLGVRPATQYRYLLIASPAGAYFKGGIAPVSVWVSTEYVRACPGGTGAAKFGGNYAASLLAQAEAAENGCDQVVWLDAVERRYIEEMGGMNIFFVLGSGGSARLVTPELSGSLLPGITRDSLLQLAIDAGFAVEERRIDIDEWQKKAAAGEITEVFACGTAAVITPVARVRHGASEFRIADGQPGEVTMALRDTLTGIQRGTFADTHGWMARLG
smiles,measurement,setting,value
"N[C@@H](CCC(=O)O)C(=O)O [Glu, glutamate]",amino donor activity for Met formation from KMTB,[1],also active as amino donors
same,Apparent Vmax,[1]; [6],5.70 ± 1.20 μmol/min/mg protein
same,Km,[1]; [6],9530 ± 3430 µM
"CC[C@H](C)[C@H](N)C(=O)O [Ile, Isoleucine]",amino donor activity for Met formation from KMTB,[1],most effective substrates
same,Apparent Vmax,[1]; [7],14.35 ± 1.08 μmol/min/mg protein
same,Km,[1]; [7],6160 ± 1140 µM
same,Apparent Vmax,[1]; [6],4.28 ± 0.32 μmol/min/mg protein
same,Km,[1]; [6],2850 ± 560 µM
"O=C(O)CCC(=O)C(=O)O [KG, ketoglutarate]",Apparent Vmax,[1]; [8],12.80 ± 1.12 μmol/min/mg protein
same,Km,[1]; [8],6950 ± 1440 µM
"CSCCC(=O)C(=O)O [KMTB, ketomethiobutyrate]",Apparent Vmax,[1]; [8],4.22 ± 0.72 μmol/min/mg protein
same,Km,[1]; [8],4200 ± 1790 µM
"CC(C)C[C@H](N)C(=O)O [Leu, leucine]",amino donor activity for Met formation from KMTB,[1],most effective substrates
same,Apparent Vmax,[1]; [7],13.44 ± 0.84 μmol/min/mg protein
same,Km,[1]; [7],6020 ± 940 µM
same,Apparent Vmax,[1]; [6],3.65 ± 0.43 μmol/min/mg protein
same,Km,[1]; [6],2500 ± 900 µM
CC(C)(C)ON [O-(t-butyl)hydroxylamine],"inhibition of Met formation, ranking at 0.1 mM",[2]; 1.0 mM KMTB,most active
same,Kiu (uncompetitive component of mixed-type inhibition),[2]; [9],85.60 ± 44.79 µM
same,type of inhibition,[2],mixed-type inhibition
same,Ki,[2]; [10],11 ± 2.76 µM
same,MIC,[3]; [11],10000 µM
same,IC50,[3]; [12],131 ± 23.1 µM
same,MIC,[4]; [13],10000 µM
same,IC50,[4]; [14],43.2 ± 10.5 µM
C=CCON [O-allylhydroxylamine],"inhibition of Met formation, ranking at 0.1 mM",[2]; 1.0 mM KMTB,most active
same,Kiu (uncompetitive component of mixed-type inhibition),[2]; [9],> 200 µM
same,type of inhibition,[2],mixed-type inhibition
same,Ki,[2]; [10],21.6 ± 11.1 µM
same,MIC,"[3]; M. tuberculosis, as stated in text (present data), read-out: MIC",156 µM
same,MIC,[3]; [11],156 µM
same,IC50,[3]; [12],39.2 ± 2.01 µM
same,MIC,[4]; [13],78 µM
same,IC50,[4]; [14],8.49 ± 1.96 µM
same,MIC,"[4]; M. marinum, read-out: MIC",78 µM
NOCc1ccccc1 [O-benzylhydroxylamine],"inhibition of Met formation, ranking at 0.1 mM",[2]; 1.0 mM KMTB,most active
same,Kiu (uncompetitive component of mixed-type inhibition),[2]; [9],84.08 ± 31.91 µM
same,type of inhibition,[2],mixed-type inhibition
same,Ki,[2]; [10],8.2 ± 2.56 µM
same,MIC,[3]; [11],1250 µM
same,IC50,[3]; [12],468 ± 62.8 µM
same,MIC,[4]; [13],1250 µM
same,IC50,[4]; [14],411 ± 67.1 µM
C[Si](C)(C)ON [O-trimethylsilylhydroxylamine],inhibition of Met formation,[2]; 1.0 mM KMTB,"With the exception of O-trimethylsilylhydroxylamine, all of the compounds inhibited Met formation to some extent"
"N[C@@H](Cc1ccccc1)C(=O)O [Phe, phenylalanine]",amino donor activity for Met formation from KMTB,[1],also active as amino donors
same,Apparent Vmax,[1]; [6],2.17 ± 0.22 μmol/min/mg protein
same,Km,[1]; [6],7440 ± 1400 µM
N[C@@H](Cc1ccc(O)cc1)C(=O)O [Tyrosine],amino donor activity for Met formation from KMTB,[1],much lesser ability to transaminate KMTB
"CC(C)[C@H](N)C(=O)O [Val, valine]",amino donor activity for Met formation from KMTB,[1],most effective substrates
same,Apparent Vmax,[1]; [7],11.82 ± 0.80 μmol/min/mg protein
same,Km,[1]; [7],5790 ± 990 µM
same,Apparent Vmax,[1]; [6],2.58 ± 0.41 μmol/min/mg protein
same,Km,[1]; [6],1770 ± 860 µM
NOCC[C@H](N)C(=O)O [canaline],inhibition of Met formation,[2]; 1.0 mM KMTB,not a particularly good inhibitor
same,IC50,[3]; [15],273 ± 14.6 µM
same,MIC,[3]; [15],1250 µM
same,IC50,"[4]; Mycobacterium marinum, 192 h",335 ± 13.6 µM
same,MIC,"[4]; Mycobacterium marinum, 192 h",1250 µM
NOCC(=O)O [carboxymethoxylamine],Ki,[2],21 ± 7.27 µM
same,"inhibition of Met formation, ranking at 0.1 mM",[2]; 1.0 mM KMTB,most active
same,Kiu (uncompetitive component of mixed-type inhibition),[2]; [9],142.42 ± 69.76 µM
same,type of inhibition,[2],mixed-type inhibition
same,IC50,"[3]; Mycobacterium tuberculosis, 336 h, M. tuberculosis, n = 6, 14 days at 37°C, Middlebrook 7H9, read-out: IC50",71 ± 7.83 µM
same,MIC,"[3]; Mycobacterium tuberculosis, 336 h, M. tuberculosis, n = 6, 14 days at 37°C, Middlebrook 7H9, read-out: MIC",313 µM
same,MIC,"[3]; Mycobacterium tuberculosis, M. tuberculosis, as stated in text (present data), read-out: MIC",313 µM
same,IC50,"[4]; Mycobacterium marinum, 192 h, M. marinum, n = 8, 8 days at 30°C, Middlebrook 7H9, read-out: IC50",89.3 ± 7.65 µM
same,MIC,"[4]; Mycobacterium marinum, 192 h, M. marinum, n = 8, 8 days at 30°C, Middlebrook 7H9, read-out: MIC",313 µM
same,MIC,[5]; ref 35,910 µM
same,MIC,[5]; ref 37,170 µM
[H]/N=C(/N)N[C@H]1[C@H](O)[C@@H](O)[C@H](O[C@@H]2O[C@@H](C)[C@](O)(C=O)[C@H]2O[C@@H]2O[C@@H](CO)[C@H](O)[C@@H](O)[C@@H]2NC)[C@@H](N/C(N)=N\[H])[C@@H]1O [streptomycin],MIC,"[3]; Mycobacterium tuberculosis, M. tuberculosis, read-out: MIC",2 µg/mL
same,MIC,"[4]; Mycobacterium marinum, M. marinum, read-out: MIC",8 µg/mL
N[C@@H](Cc1c[nH]c2ccccc12)C(=O)O [tryptophan],amino donor activity for Met formation from KMTB,[1],much lesser ability to transaminate KMTB
